Data taken from patent US4451485A, “Treatment of cardio-vascular diseases with 3-(2,2,2-trimethylhydrazinium) propionate dihydrate” (Institu Organicheskogo Sinteza Akademii Nauk Latviiskoi SSR, priority 1981, dated 1984).

Legend:
[1] = Strophanthin arrhythmia in guinea pigs (450 μg/kg); format: in vivo; settings: for ED50: Cavia porcellus, read-out: ED50, Strophanthin arrhythmia in guinea pigs
Protocol: As the third model of arrhythmia, there was used strophanthin arrhythmia in guinea pigs. […] Against the background of arrhythmia the test preparations were administered intravenously.

[2] = in the organism; cited from earlier work
[3] = Variation of arrhythmogenic and lethal doses of CaCl2 in mice; format: in vivo, white mice; settings: for Effect on arrhythmogenic and lethal doses of calcium chloride: single intraperitoneal administration
Protocol: Thus, the effect of the preparation according to the present invention has been studied relative to the variation of arrhythmogenic and lethal doses of calcium chloride. An experiment was carried out on white mice of both sexes weighing 19-28 g which were narcotized by urethane and an ECG was remetered in transthoracic lead. A 2% solution of calcium chloride was administered to the test animals into the tail vein at a constant rate (0.1 ml for 15 seconds). The average dose of calcium chloride causing the appearance of arrhythmia and heart arrest was determined. In the test groups, the studied compounds were administered 45, 60, 120, 180 and 240 minutes before the beginning of administration of calcium chloride (Table 1).
Variation of arrthythmogenic and lethal doses of CaCl2
with time after administration of the studied
pharmaceutical compositions in experiments on mice.

in vivo = assay: in vivo; set-up: species or system white mice; settings: mouse, in vivo; for LD50: white mice, intravenous (Table 2)
[4] = Threshold of electric fibrillation of auricles and ventricles in cats; format: in vivo; settings: for ED50: Felis catus, read-out: ED50, electric irritation of cat's heart; for Effect on fibrillation threshold relative to the composition of the invention: novocainamide 40-55 mg/kg, quinidine and lidocain lower doses
Protocol: Furthermore, the preparation according to the present invention was tested for specific antiarrhythmic and antianginal effects. […] The effect of the novel pharmaceutical composition according to the present invention was studied on cats weighing 2.9-3.6 kg. The preparation was used as a 10% aqueous solution containing 3-(2,2,2-trimethylhydrazinium)propionate for the determination of the threshold value of electric fibrillation of auricles and ventricles. Under artificial respiration after opening of the thorax and pericardium, needle-like electrodes were applied to the right auricula and apex of the left ventricle. The irritation was effected by square pulses of 1 m.s., 15 st/s.
(§1) For the comparison of preparations, as the criterion of the range of therapeutic effect, there was used the ratio of the half-lethal dose to the half-effective dose (LD50 /ED50) which was referred to as the antiarrhythmic index. […] The comparative study of the antiarrhythmic activity of pharmaceutical preparations using an acotine model of arrhythmia was effected in experiments on white rats weighing 190-240 g. The test preparations were administered intraperitoneally 10-40 minutes before administration of aconitine.

[5] = Aconitine model of arrhythmia in white rats; format: in vivo; settings: for ED50: Rattus norvegicus, ip, read-out: ED50, aconitine arrhythmia in rats; for Antiarrhythmic index LD50/ED50, aconitine arrhythmia in rats: rat, in vivo
Protocol: as §1

[6] = Coronary circulation and hemodynamics in narcotized cats; format: in vivo
Protocol: In acute experiments on narcotized cats with a mass of from 2.9 to 4.1 kg under artificial respiration, arterial pressure was recorded in the common carotide artery, central venous pressure in the right auricle, volume rate of blood flow in the ascending aortic arch and volume rate of the coronary blood flow. At the same time, there was recorded the content of oxyhemoglobin in venous coronary blood.

[7] = 10 mg/kg intraperitoneal, 60 minutes
[8] = 10 mg/kg intraperitoneal, 120 minutes
[9] = 30 mg/kg intraperitoneal, 60 minutes
[10] = 30 mg/kg intraperitoneal, 120 minutes
[11] = 3 mg/kg intraperitoneal, 45 minutes
[12] = 3 mg/kg intraperitoneal, 60 minutes
[13] = 3 mg/kg intraperitoneal, 120 minutes
[14] = 10 mg/kg intraperitoneal, 180 minutes

CCN(CC)CC(=O)Nc1c(C)cccc1C [Lidocain]
ED50 ([1]; iv): 3.8 ± 0.5 mg/kg | Duration for which Strophanthin-induced arrhythmia is cut short / ECG improved ([1]; intravenous): 0.5 to 3 min | Number of animals (experiments) with effect on arrhythmia ([1]; intravenous): 4 out of 7

C[N+](C)(C)CCCC(=O)[O-] [γ-butyrobetain]
Metabolism into carnitine [2]: rapidly metabolized

CCN(CC)CCNC(=O)c1ccc(N)cc1 [Novocainamide]
Arrhythmogenic dose of CaCl2 [3, 7]: 114.16 mg/kg | Lethal dose of CaCl2 [3, 7]: 120.8 mg/kg | Arrhythmogenic dose of CaCl2 [3, 8]: 86.85 mg/kg | Lethal dose of CaCl2 [3, 8]: 104.5 mg/kg | Arrhythmogenic dose of CaCl2 [3, 9]: 125.16 mg/kg | Lethal dose of CaCl2 [3, 9]: 143 mg/kg | Arrhythmogenic dose of CaCl2 [3, 10]: 93.16 mg/kg | Lethal dose of CaCl2 [3, 10]: 114.9 mg/kg | Effect on arrhythmogenic and lethal doses of calcium chloride [3]: more pronounced increase of the arrhythmogenic dose of calcium chloride | LD50 (in vivo): 112 mg/kg | ED50 ([4]; iv): 46 ± 6.3 mg/kg | Antiarrhythmic index LD50/ED50, electric irritation of cat's heart ([4]; intravenous): 2 | Antiarrhythmic index LD50/ED50, electric irritation of cat's heart ([4]; intravenous, listed as novocainamide): 2.3 | Effect on fibrillation threshold relative to the composition of the invention [4]: the same effect | ED50 [5]: 45 ± 5 mg/kg | Antiarrhythmic index LD50/ED50, aconitine arrhythmia in rats [5]: 2.5 | ED50 ([1]; intravenous): 55 ± 7.3 mg/kg | Duration for which Strophanthin-induced arrhythmia is cut short / ECG improved ([1]; intravenous): 5 to 20 min

CCOC(=O)COc1ccc2c(C)c(CCN(CC)CC)c(=O)oc2c1 [Carbocromene, reference compound]
Increase duration ([6]; 0.5 mg/kg): 35 min | Volume rate, percent of increase ([6]; 0.5 mg/kg): 30% | Change of heart output ([6]; 2 mg/kg): +5 - 15% | Increase duration ([6]; 2 mg/kg): 50 min | Volume rate, percent of increase ([6]; 2 mg/kg): 45% | Change of arterial pressure ([6]; 5 mg/kg): 0 - +7% | Change of central venous pressure ([6]; 5 mg/kg): 5 - 10% | Change of heart output ([6]; 5 mg/kg): +5 - 15% | Increase duration ([6]; 5 mg/kg): 70 min | Volume rate, percent of increase ([6]; 5 mg/kg): 55% | Saturation of the venous blood of coronary sinus with oxygen ([6]; in vivo): lastingly increase saturation of the venous blood of coronary sinus with oxygen

C=C[C@H]1C[N@@]2CC[C@H]1C[C@@H]2[C@@H](O)c1ccnc2ccc(OC)cc12 [Quinidine]
Arrhythmogenic dose of CaCl2 [3, 11]: 128.9 mg/kg | Lethal dose of CaCl2 [3, 11]: 147.7 mg/kg | Arrhythmogenic dose of CaCl2 [3, 12]: 104.5 mg/kg | Lethal dose of CaCl2 [3, 12]: 117.8 mg/kg | Arrhythmogenic dose of CaCl2 [3, 13]: 87.47 mg/kg | Lethal dose of CaCl2 [3, 13]: 103.65 mg/kg | Arrhythmogenic dose of CaCl2 ([3]; 10 mg/kg intraperitoneal, 45 minutes before CaCl2, control 85): 120.84 mg/kg | Lethal dose of CaCl2 ([3]; 10 mg/kg intraperitoneal, 45 minutes before CaCl2, control 100.9): 138.54 mg/kg | Arrhythmogenic dose of CaCl2 [3, 7]: 119.48 mg/kg | Lethal dose of CaCl2 [3, 7]: 126.2 mg/kg | Arrhythmogenic dose of CaCl2 [3, 8]: 94.5 mg/kg | Lethal dose of CaCl2 [3, 8]: 117.6 mg/kg | Arrhythmogenic dose of CaCl2 [3, 14]: 88.7 mg/kg | Lethal dose of CaCl2 [3, 14]: 115.8 mg/kg | Effect on arrhythmogenic and lethal doses of calcium chloride [3]: more pronounced increase of the arrhythmogenic dose of calcium chloride | Toxicity relative to the composition of the invention (in vivo): substantially higher toxicity | LD50 (in vivo): 68 mg/kg | ED50 ([4]; intravenous): 2.6 ± 0.5 mg/kg | Antiarrhythmic index LD50/ED50, electric irritation of cat's heart ([4]; intravenous): 26 | Effect on fibrillation threshold relative to the composition of the invention [4]: exerting their effect at lower doses | ED50 [5]: 4.3 ± 0.6 mg/kg | Antiarrhythmic index LD50/ED50, aconitine arrhythmia in rats [5]: 16 | ED50 ([1]; intravenous): 2.3 ± 0.4 mg/kg | Antiarrhythmic index LD50/ED50, Strophanthin arrhythmia in guinea pigs ([1]; guinea pig, in vivo): 30 | Duration for which Strophanthin-induced arrhythmia is cut short / ECG improved ([1]; intravenous): 0.5 to 3 min | Number of animals (experiments) with effect on arrhythmia ([1]; intravenous): 4 out of 8
